For data set [1], the species on record is Mus musculus. The data set can be described thus: Evaluated for analgesic activity in mice using hot plate method. In kind it is functional.
For data set [2], the species on record is Mus musculus. The data set can be described thus: Evaluated for analgesic activity in mice using Nilsen test. In kind it is functional.
The target in another data set is Opioid receptor (Rattus norvegicus, UniProt P33533+P34975+P33535). The data set can be described thus: Tested for Opioid receptors affinity determined by the capacity to displace bound, radiolabeled dihydromorphine from rat brain homogenates.
The test system of data set [3] is Monkey. The data set can be described thus: Evaluated for depressant effects in photocell activity cages at 60 mg/kg; IA is Inactive. Set-up: dose 60 mg/kg. Conditions: Cercopithecidae. In kind it is functional, organism-based.
The subject of data set [4] is Monkey. Briefly: Evaluated for single dose suppression tests in monkeys at 5 mg/kg; Not Effective (activity in relation to morphine). Format: functional, organism-based. Set-up: dose 5 mg/kg. The settings on record: Cercopithecidae.
Data set [5] relates to Monkey. Briefly: Evaluated for activity in inverted screen assay. In kind it is functional. The settings on record: Cercopithecidae.
For data set [6], the species on record is Mus musculus. The data set can be described thus: Evaluated for analgesic activity in mice using writhing test. Format: functional. In general terms: An intraperitoneal irritant provokes the stretching counted in writhing tests.
Data set [7] can be described thus: Lethal dose in monkeys. Format: toxicity, organism-based. The settings on record: cercopithecidae, in vivo.
Data set [8] relates to Monkey. The data set can be described thus: Evaluated for single dose suppression tests in monkeys at 10 mg/kg; Not Effective (activity in relation to morphine). In kind it is functional, organism-based. Set-up: dose 10 mg/kg. Conditions: Cercopithecidae.
For data set [9], the system named is Monkey. The data set can be described thus: Evaluated for single dose suppression tests in monkeys at 2 mg/kg; Not Effective (activity in relation to morphine). The settings on record: Cercopithecidae. Set-up: dose 2 mg/kg. In kind it is functional, organism-based.
Data set [10] relates to Monkey. Briefly: Evaluated for depressant effects in photocell activity cages at 10 mg/kg; IA is Inactive. Format: functional, organism-based. Set-up: dose 10 mg/kg. The settings on record: Cercopithecidae.
Data set [11] is filed under the species Mus musculus. Briefly: Evaluated for activity in Nilsen test.

The structures appear in SMILES notation. The source made the active and inactive calls. No cut-off for these calls is given here.

Broadly, the ED50 is the midpoint of the dose-response relation. `CCC(=O)C1(c2cccc(O)c2)CCN(C)CC1` [KETOBEMIDONE]: the 50% effect level in the data set filed under Mus musculus [1] (ED50) was put at a dose of 0.8 mg/kg.
For orientation: Ki means the equilibrium dissociation constant of an inhibitor or competing ligand from its target. For the compound `CCCCCN1CCC2(CC1)c1cc(O)ccc1C(C)(CC)OC2CC` (configuration not stated), the ED50 in the data set filed under Mus musculus [1] and in the data set filed under Mus musculus [2] was more than 30 mg/kg each time. Further, the inhibition constant (Ki) on Opioid receptor was found to be 5 µM.
Usually LD50 stands for the dose expected to kill half of the subjects tested. As for `CCCCCN1CCC2(CC1)c1cc(O)ccc1C(C)(C)OC2CC` (configuration not stated), the ED50 entry in the data set with Monkey [3] and in the data set with Monkey [10] was “inactive” in each case. Besides, the outcome in the data set on Monkey [4], in the data set on Monkey [8] and in the data set on Monkey [9] was inactive. The median effective dose (ED50) in the data set with Monkey [5] was 38 mg/kg; in the data set listed under Mus musculus [6], 4.2 mg/kg; in the data set filed under Mus musculus [1], more than 30 mg/kg; in the data set listed under Mus musculus [2], more than 30 mg/kg. In [7], this compound returned an LD50 of 80 mg/kg. This compound also registered an inhibitory constant (Ki) on Opioid receptor of 2 µM.
Consider `C=CCN1CCC2(CC1)c1cc(O)ccc1C(C)(C)OC2CC` (configuration not stated), for which the ED50 in the data set listed under Mus musculus [1] and in the data set filed under Mus musculus [2] was more than 30 mg/kg throughout. The same compound gave a Ki on Opioid receptor of 5 µM.
Consider `CCC1OC(C)(C)c2ccc(O)cc2C12CCN(C)CC2` (configuration not stated), for which the ED50 in the data set listed under Mus musculus [1] and in the data set filed under Mus musculus [2] was more than 30 mg/kg throughout. Also, the Ki at Opioid receptor is 10 µM.
`CN1CC[C@]23c4c5ccc(O)c4O[C@H]2[C@@H](O)C=C[C@H]3[C@H]1C5` [MORPHINE]: the ED50 in the data set filed under Mus musculus [11] was found to be 0.8 mg/kg.
